The values below come from patent EP0501870A1, “New pharmaceutical compositions, particularly for the treatment of functional infections of the large intestines, and process for obtaining them” (SOCIETE CIVILE BIOPROJET, priority 1991, dated 1992).

Molecules are shown by their SMILES.

A short description of assay [1]: Multicentre clinical study in functional colopathy patients. It counts as in vivo. An excerpt: Une étude multicentrique chez 420 colopathes fonctionnels a été entreprise avec l'acétorphan [R,S], produit pour lequel les études de toxicité chronique chez l'animal rongeur (rat) et non rongeur (singe) autorisaient des études de longue durée (supérieure à 1 mois). […]
Le critère principal d'efficacité retenu était la douleur évaluée selon une échelle analogique. Les autres paramètres pris en considération étaient les troubles du transit, qu'il s'agisse de constipation (54,4 % des cas) ou de diarrhée (39 % des cas).

In assay [2] the target is A.C.E. (Homo sapiens, UniProt P12821). The settings on record: cited from earlier work.
Chain of A.C.E. (P12821 30-1306, species assumed): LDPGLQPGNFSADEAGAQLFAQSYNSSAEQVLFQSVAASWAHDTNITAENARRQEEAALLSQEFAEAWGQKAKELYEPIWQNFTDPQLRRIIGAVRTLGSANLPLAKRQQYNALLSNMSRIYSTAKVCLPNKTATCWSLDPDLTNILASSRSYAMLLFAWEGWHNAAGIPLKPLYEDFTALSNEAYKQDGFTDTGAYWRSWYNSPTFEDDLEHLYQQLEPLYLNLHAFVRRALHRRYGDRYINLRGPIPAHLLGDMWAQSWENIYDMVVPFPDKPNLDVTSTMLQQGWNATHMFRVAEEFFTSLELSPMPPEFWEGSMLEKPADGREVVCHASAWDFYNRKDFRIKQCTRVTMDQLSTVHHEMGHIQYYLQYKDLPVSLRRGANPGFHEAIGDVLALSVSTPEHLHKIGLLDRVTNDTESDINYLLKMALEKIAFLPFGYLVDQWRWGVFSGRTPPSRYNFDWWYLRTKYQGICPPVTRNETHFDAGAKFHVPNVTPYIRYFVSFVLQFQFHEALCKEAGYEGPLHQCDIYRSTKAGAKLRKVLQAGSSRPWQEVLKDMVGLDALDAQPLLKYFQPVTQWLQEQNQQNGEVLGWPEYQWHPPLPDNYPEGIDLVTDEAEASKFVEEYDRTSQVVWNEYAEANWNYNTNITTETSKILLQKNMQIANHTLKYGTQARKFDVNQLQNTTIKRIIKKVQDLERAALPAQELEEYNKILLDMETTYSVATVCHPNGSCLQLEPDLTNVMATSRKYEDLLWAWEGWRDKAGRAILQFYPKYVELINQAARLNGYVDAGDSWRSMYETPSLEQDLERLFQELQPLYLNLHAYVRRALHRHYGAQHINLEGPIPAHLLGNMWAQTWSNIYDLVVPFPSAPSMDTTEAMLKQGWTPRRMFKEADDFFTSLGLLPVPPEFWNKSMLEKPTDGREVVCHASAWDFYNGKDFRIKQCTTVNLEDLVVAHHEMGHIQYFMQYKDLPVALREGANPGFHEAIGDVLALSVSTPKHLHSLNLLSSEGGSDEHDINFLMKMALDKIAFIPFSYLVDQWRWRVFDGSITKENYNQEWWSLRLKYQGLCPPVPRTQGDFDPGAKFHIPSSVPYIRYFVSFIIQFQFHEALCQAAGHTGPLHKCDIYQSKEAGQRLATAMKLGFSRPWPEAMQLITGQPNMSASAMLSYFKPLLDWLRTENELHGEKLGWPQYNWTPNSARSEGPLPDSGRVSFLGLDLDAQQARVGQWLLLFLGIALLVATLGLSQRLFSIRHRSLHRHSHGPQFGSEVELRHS
Assay [3] deals with T1, enképhalinase plasmatique (Homo sapiens, UniProt P08473).
T1 construct: from tissue; host or cells: plasma of healthy volunteers
T1 sequence (P08473 whole entry): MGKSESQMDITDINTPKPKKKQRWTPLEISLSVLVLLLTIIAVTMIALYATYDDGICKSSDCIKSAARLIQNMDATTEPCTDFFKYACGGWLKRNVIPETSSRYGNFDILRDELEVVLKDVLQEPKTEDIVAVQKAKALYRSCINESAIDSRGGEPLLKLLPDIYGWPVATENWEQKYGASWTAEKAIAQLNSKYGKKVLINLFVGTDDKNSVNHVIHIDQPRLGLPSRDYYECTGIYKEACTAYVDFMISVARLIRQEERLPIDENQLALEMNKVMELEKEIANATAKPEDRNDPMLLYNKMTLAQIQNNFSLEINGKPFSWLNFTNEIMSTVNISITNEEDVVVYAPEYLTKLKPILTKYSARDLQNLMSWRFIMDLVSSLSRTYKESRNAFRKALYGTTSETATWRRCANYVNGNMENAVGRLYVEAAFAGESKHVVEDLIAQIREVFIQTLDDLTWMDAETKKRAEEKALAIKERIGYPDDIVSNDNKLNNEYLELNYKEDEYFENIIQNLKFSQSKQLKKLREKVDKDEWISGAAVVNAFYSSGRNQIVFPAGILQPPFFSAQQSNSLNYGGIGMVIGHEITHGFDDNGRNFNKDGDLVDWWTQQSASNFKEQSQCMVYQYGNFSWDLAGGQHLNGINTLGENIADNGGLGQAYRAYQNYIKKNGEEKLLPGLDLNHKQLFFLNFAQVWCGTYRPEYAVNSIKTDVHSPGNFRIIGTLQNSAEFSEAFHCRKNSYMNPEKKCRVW
The assay is described as follows: Plasma enkephalinase activity over time after a single oral dose. Particulars: healthy volunteer; for Activité enképhalinase plasmatique T3O' / Activité enképhalinase plasmatique T1h / Activité enképhalinase plasmatique T8h / Activité enképhalinase plasmatique TO: 30 mg oral single dose; for Activité enképhalinase plasmatique T3O': 30 min; for Activité enképhalinase plasmatique T3O' / Activité enképhalinase plasmatique T1h / Activité enképhalinase plasmatique T8h: * p < 0.05 vs TO; for Activité enképhalinase plasmatique T1h: 1 h; for Activité enképhalinase plasmatique T8h: 8 h; for Activité enképhalinase plasmatique TO: time zero (baseline). It counts as in vivo, volontaire sain. The protocol: Chez le volontaire sain, l'activité enzymatique plasmatique a été évaluée en fonction du temps pour suivre l'absorption et la durée de vie des inhibiteurs étudiés, après administration orale d'un dose unique de 30 mg.
Comparaison des inhibitions enképhalinasiques plasmatiques après administration des différents composés à la dose de 30 mg par voie orale.

For assay [4], the system named is motricité colique. Briefly: Post-prandial colonic motor activity recorded by strain gauges. It counts as in vivo, chien. The settings on record: dog, mean and sd of 8 values. An excerpt: Chez le chien, en période post-prandiale, le mélange des deux isomères [R] 65 % [S]
For assay [5], the target named is enképhalinase. Particulars: type of constant (IC50/Ki) not given; read-out: activité inhibitrice de l'enképhalinase; cited from earlier work.
Chain of enképhalinase (P08473 whole entry, species assumed): as the sequence (P08473 whole entry) above
Assay [6] addresses enképhalinase (Homo sapiens, UniProt P08473). Particulars: compared with isomère [S], cited from earlier work.
For assay [7] the following is noted: clinical trials in man; cited from earlier work.
[8] abbreviates: plasma enkephalinase inhibition, 30 mg oral.

Chain of enképhalinase (Homo sapiens, UniProt P08473) (P08473 whole entry, species assumed): as the sequence (P08473 whole entry) above

As for `CC(=O)SCC(Cc1ccccc1)C(=O)NCC(=O)OCc1ccccc1` (racemic) [acétorphan], in assay [1] (1 mois (420 sujets)), the “% d'amélioration après acétorphan 100 mg X 3, Ballonnement” value was found to be 60%; the “% d'amélioration après acétorphan 100 mg X 3, Douleur” value is recorded as 70%; the “% d'amélioration après acétorphan 100 mg X 3, Troubles du transit” value was 50%. For the same molecule, in assay [1] (2 mois (115 sujets)), the “% d'amélioration après acétorphan 100 mg X 3, Ballonnement” value came to 80%; the “% d'amélioration après acétorphan 100 mg X 3, Douleur” value is 84,3%; the “% d'amélioration après acétorphan 100 mg X 3, Troubles du transit” value is listed as 81,5%. In assay [1] (3 mois (40 sujets)), the “% d'amélioration après acétorphan 100 mg X 3, Ballonnement” value was found to be 90%; the “% d'amélioration après acétorphan 100 mg X 3, Douleur” value is 87,5%; the “% d'amélioration après acétorphan 100 mg X 3, Troubles du transit” value is given as 94%. The “sujets constipés au stade 3” value in assay [1] (after one month of treatment) is reported as 0,9%. Also, the “sujets diarrhéiques présentant une diarrhée objective et importante (d'intensité 2 et 3)” value in assay [1] (after one month of treatment, 20 % before treatment) is 2,4%. The “sujets constipés souffrant de constipation importante (stades 2 et 3)” value in assay [1] (after one month of treatment, 32 % before treatment) is 12,7%.
Consider `CC(=O)SC[C@H](Cc1ccccc1)C(=O)NCC(=O)OCc1ccccc1` [[R], [R] acétorphan], for which the “activité inhibitrice de l'A.C.E.” value in assay [2] is given as “dénué d'effet sur l'A.C.E”. Moreover, in assay [3], the “Activité enképhalinase plasmatique T3O'” value is reported as 40,0 pmol/ml/min, the “Activité enképhalinase plasmatique T1h” value is on record as 32,4* pmol/ml/min, the “Activité enképhalinase plasmatique T8h” value is 46,1 pmol/ml/min and the “Activité enképhalinase plasmatique TO” value is listed as 52,3 pmol/ml/min. In assay [3] (setting [8]), the “durée d'action” value is “plus courte que le dérivé [S] et le mélange [R] + [S]” and the “effet maximum [Cmax]” value is listed as “plus faible”. Moreover, in assay [4] (10 mg/kg per os), the “Index moteur (évalué par jauge de contrainte) Avant repas (-2-0 h)” value is on record as 5.7 ± 0.8. Further, in assay [4] (10 mg/kg per os, * p < 0.01 vs control), the “Index moteur (évalué par jauge de contrainte) Après repas (2 - 10 h)” value was 15.2 ± 2.4. In assay [5], the IC50 is 1.7 nM. In addition, the “durée d'action vis-à-vis de l'enképhalinase” value in assay [6] is “environ trois fois moins longue que celle de l'isomère [S]”. In assay [6] (enkephalinase inhibition), the effet maximal result was “moins intense”.
With `CC(=O)SC[C@@H](Cc1ccccc1)C(=O)NCC(=O)OCc1ccccc1` [[S], [S] acétorphan], in assay [2], the “activité inhibitrice de l'A.C.E.” value is “résidant essentiellement dans l'isomère [S]”. In assay [3], the “Activité enképhalinase plasmatique T3O'” value is on record as 28,4* pmol/ml/min, the “Activité enképhalinase plasmatique T1h” value is given as 21,7* pmol/ml/min, the “Activité enképhalinase plasmatique T8h” value is on record as 37* pmol/ml/min and the “Activité enképhalinase plasmatique TO” value is 53,3 pmol/ml/min. In addition, the “Index moteur (évalué par jauge de contrainte) Avant repas (-2-0 h)” value in assay [4] (5 mg/kg per os) stood at 6.3 ± 1. Also, the IC50 in assay [5] is 2.2 nM. Further, the effet antihypertenseur entry in assay [7] is “effet antihypertenseur, démontré chez l'homme”.
